Laboratory results from patent publication EP4635500A1, “THERAPEUTIC AGENT FOR BACTERIAL INFECTION” (Sumitomo Pharma Co., Ltd., priority 2022, dated 2024).
Values after ≈ are worked out from the molar mass of the structure shown. Where two headings read alike, the source gives them in different places.

What was measured:
A. baumannii = experiment: MIC, broth microdilution, CDC/FDA Antibiotic Resistance Isolate Bank (Example 7, Tables 9, 13, 14); type: cell-based, Acinetobacter baumannii; conditions: for MIC: read-out: MIC
Enterobacterales = experiment: MIC, broth microdilution, CDC/FDA Antibiotic Resistance Isolate Bank (Example 7, Tables 8, 11, 12); type: cell-based; conditions: for MIC: read-out: MIC
[1] = MIC distribution, metallo-β-lactamase-producing A. baumannii, inhibitor µg/mL in parentheses

NCC[C@H](O)C(=O)N[C@@H]1C[C@H](N)[C@@H](O[C@H]2O[C@H](CN)[C@@H](O)[C@H](O)[C@H]2O)[C@H](O)[C@H]1O[C@H]1O[C@H](CO)[C@@H](O)[C@H](N)[C@H]1O [Amikacin, amikacin]
MIC (A. baumannii; Acinetobacter baumannii, A. baumannii KUB No. 5567, AR Bank #70, OXA-58, OXA-100): 1 µg/mL (≈ 1.71 µM)
MIC (A. baumannii; Acinetobacter baumannii, A. baumannii KUB No. 5575, AR Bank #78, OXA-71): 32 µg/mL (≈ 54.6 µM)
MIC (A. baumannii; Acinetobacter baumannii, A. baumannii KUB No. 5580, AR Bank #83, OXA-23, OXA-69, NDM-1): > 64 µg/mL
MIC (A. baumannii; Acinetobacter baumannii, A. baumannii KUB No. 5585, AR Bank #88, OXA-64, NDM-1): 32 µg/mL (≈ 54.6 µM)
MIC (A. baumannii; Acinetobacter baumannii, A. baumannii KUB No. 5598, AR Bank #101, OXA-24, OXA-65): 64 µg/mL (≈ 109 µM)
MIC (A. baumannii; Acinetobacter baumannii, A. baumannii KUB No. 5599, AR Bank #102, OXA-66): > 64 µg/mL
MIC (A. baumannii; Acinetobacter baumannii, A. baumannii KUB No. 5706, AR Bank #273, OXA-23, OXA-66): > 64 µg/mL
MIC (A. baumannii; Acinetobacter baumannii, A. baumannii KUB No. 5707, AR Bank #274, OXA-66, OXA-72): 16 µg/mL (≈ 27.3 µM)
MIC (A. baumannii; Acinetobacter baumannii, A. baumannii KUB No. 5708, AR Bank #275, OXA-23, OXA-66): > 64 µg/mL
MIC (A. baumannii; Acinetobacter baumannii, A. baumannii KUB No. 5709, AR Bank #276, no carbapenemase genes (-)): 64 µg/mL (≈ 109 µM)
MIC (A. baumannii; Acinetobacter baumannii, A. baumannii KUB No. 5710, AR Bank #277, OXA-24, OXA-65): 16 µg/mL (≈ 27.3 µM)
MIC (A. baumannii; Acinetobacter baumannii, A. baumannii KUB No. 5711, AR Bank #278, OXA-23, OXA-66): > 64 µg/mL
MIC (A. baumannii; Acinetobacter baumannii, A. baumannii KUB No. 5712, AR Bank #279, OXA-23, OXA-66): > 64 µg/mL
MIC (A. baumannii; Acinetobacter baumannii, A. baumannii KUB No. 5713, AR Bank #280, OXA-66): 4 µg/mL (≈ 6.83 µM)
MIC (A. baumannii; Acinetobacter baumannii, A. baumannii KUB No. 5714, AR Bank #281, OXA-82): 2 µg/mL (≈ 3.42 µM)
MIC (A. baumannii; Acinetobacter baumannii, A. baumannii KUB No. 5715, AR Bank #282, OXA-23, OXA-66): > 64 µg/mL
MIC (A. baumannii; Acinetobacter baumannii, A. baumannii KUB No. 5716, AR Bank #283, OXA-23, OXA-66): > 64 µg/mL
MIC (A. baumannii; Acinetobacter baumannii, A. baumannii KUB No. 5717, AR Bank #284, OXA-24, OXA-65): 32 µg/mL (≈ 54.6 µM)
MIC (A. baumannii; Acinetobacter baumannii, A. baumannii KUB No. 5718, AR Bank #285, OXA-24, OXA-65): 64 µg/mL (≈ 109 µM)
MIC (A. baumannii; Acinetobacter baumannii, KUB No. 5719, AR Bank #286): > 64 µg/mL
MIC (A. baumannii; Acinetobacter baumannii, KUB No. 5720, AR Bank #287): 64 µg/mL (≈ 109 µM)
MIC (A. baumannii; Acinetobacter baumannii, KUB No. 5721, AR Bank #288): > 64 µg/mL
MIC (A. baumannii; Acinetobacter baumannii, KUB No. 5722, AR Bank #259): 32 µg/mL (≈ 54.6 µM)
MIC (A. baumannii; Acinetobacter baumannii, KUB No. 5723, AR Bank #290): > 64 µg/mL
MIC (A. baumannii; Acinetobacter baumannii, KUB No. 5724, AR Bank #291): > 64 µg/mL
MIC (A. baumannii; Acinetobacter baumannii, KUB No. 5725, AR Bank #292): 32 µg/mL (≈ 54.6 µM)
MIC (A. baumannii; Acinetobacter baumannii, KUB No. 5726, AR Bank #293): 16 µg/mL (≈ 27.3 µM)
MIC (A. baumannii; Acinetobacter baumannii, KUB No. 5727, AR Bank #294): 64 µg/mL (≈ 109 µM)
MIC (A. baumannii; Acinetobacter baumannii, KUB No. 5728, AR Bank #295): 2 µg/mL (≈ 3.42 µM)
MIC (A. baumannii; Acinetobacter baumannii, KUB No. 5729, AR Bank #296): > 64 µg/mL
MIC (A. baumannii; Acinetobacter baumannii, KUB No. 5730, AR Bank #297): 32 µg/mL (≈ 54.6 µM)
MIC (A. baumannii; Acinetobacter baumannii, KUB No. 5731, AR Bank #298): > 64 µg/mL
MIC (A. baumannii; Acinetobacter baumannii, KUB No. 5732, AR Bank #299): > 64 µg/mL
MIC (A. baumannii; Acinetobacter baumannii, KUB No. 5733, AR Bank #300): > 64 µg/mL
MIC (A. baumannii; Acinetobacter baumannii, KUB No. 5734, AR Bank #301): 64 µg/mL (≈ 109 µM)
MIC (A. baumannii; Acinetobacter baumannii, KUB No. 5735, AR Bank #302): > 64 µg/mL
MIC (A. baumannii; Acinetobacter baumannii, KUB No. 5736, AR Bank #303): > 64 µg/mL
MIC (A. baumannii; Acinetobacter baumannii, KUB No. 5737, AR Bank #304): 32 µg/mL (≈ 54.6 µM)
MIC (A. baumannii; Acinetobacter baumannii, KUB No. 5738, AR Bank #305): 32 µg/mL (≈ 54.6 µM)
MIC (A. baumannii; Acinetobacter baumannii, KUB No. 5739, AR Bank #306): 64 µg/mL (≈ 109 µM)
MIC (A. baumannii; Acinetobacter baumannii, KUB No. 5740, AR Bank #307): > 64 µg/mL
MIC (A. baumannii; Acinetobacter baumannii, KUB No. 5741, AR Bank #308): > 64 µg/mL
MIC (A. baumannii; Acinetobacter baumannii, KUB No. 5742, AR Bank #309): > 64 µg/mL
MIC (A. baumannii; Acinetobacter baumannii, KUB No. 5743, AR Bank #310): > 64 µg/mL
MIC (A. baumannii; Acinetobacter baumannii, KUB No. 5744, AR Bank #311): > 64 µg/mL
MIC (A. baumannii; Acinetobacter baumannii, KUB No. 5745, AR Bank #312): 1 µg/mL (≈ 1.71 µM)
MIC (A. baumannii; Acinetobacter baumannii, KUB No. 5746, AR Bank #313): 2 µg/mL (≈ 3.42 µM)
MIC50 (A. baumannii; Acinetobacter baumannii, 55 isolates of A. baumannii, read-out: MIC50): 64 µg/mL (≈ 109 µM)
MIC80 (A. baumannii; Acinetobacter baumannii, 55 isolates of A. baumannii, read-out: MIC80): > 64 µg/mL
MIC90 (A. baumannii; Acinetobacter baumannii, 55 isolates of A. baumannii, read-out: MIC90): > 64 µg/mL
Number of isolates at MIC 2 µg/mL (A. baumannii; [1]): 2
Number of isolates at MIC 32 µg/mL (A. baumannii; [1]): 1
Number of isolates at MIC >64 µg/mL (A. baumannii; [1]): 1
MIC50 (Enterobacterales; 154 strains of Enterobacterales, read-out: MIC50): 4 µg/mL (≈ 6.83 µM)
MIC90 (Enterobacterales; 154 strains of Enterobacterales, read-out: MIC90): > 64 µg/mL
MIC (Enterobacterales; Citrobacter freundii, KUB No. 5654, AR Bank # 157): > 64 µg/mL
MIC (Enterobacterales; Enterobacter cloacae, Enterobacter cloacae KUB No. 5792, AR Bank #448): 16 µg/mL (≈ 27.3 µM)
MIC (Enterobacterales; Enterobacter cloacae, Enterobacter cloacae KUB No. 5807, AR Bank #501): 4 µg/mL (≈ 6.83 µM)
MIC (Enterobacterales; Enterobacter cloacae, Enterobacter cloacae KUB No. 5808, AR Bank #502): 2 µg/mL (≈ 3.42 µM)
MIC (Enterobacterales; Enterobacter cloacae, Enterobacter cloacae complex, KUB No. 5661, AR Bank # 164): 1 µg/mL (≈ 1.71 µM)
MIC (Enterobacterales; Enterobacter cloacae, Enterobacter cloacae group, KUB No. 5629, AR Bank # 132): 1 µg/mL (≈ 1.71 µM)
MIC (Enterobacterales; Enterobacter cloacae, KUB No. 5529, AR Bank# 32): 1 µg/mL (≈ 1.71 µM)
MIC (Enterobacterales; Enterobacter cloacae, KUB No. 5535, AR Bank# 38): > 64 µg/mL
MIC (Enterobacterales; Enterobacter cloacae, KUB No. 5547, AR Bank# 50): 1 µg/mL (≈ 1.71 µM)
MIC (Enterobacterales; Enterobacter cloacae, KUB No. 5550, AR Bank# 53): 64 µg/mL (≈ 109 µM)
MIC (Enterobacterales; Enterobacter cloacae, KUB No. 5557, AR Bank# 60): 1 µg/mL (≈ 1.71 µM)
MIC (Enterobacterales; Enterobacter cloacae, KUB No. 5562, AR Bank # 65): 1 µg/mL (≈ 1.71 µM)
MIC (Enterobacterales; Enterobacter cloacae, KUB No. 5569, AR Bank # 72): 1 µg/mL (≈ 1.71 µM)
MIC (Enterobacterales; Enterobacter cloacae, KUB No. 5570, AR Bank # 73): 0.25 µg/mL (≈ 0.427 µM)
MIC (Enterobacterales; Enterobacter cloacae, KUB No. 5590, AR Bank # 93): 2 µg/mL (≈ 3.42 µM)
MIC (Enterobacterales; Enterobacter cloacae, KUB No. 5660, AR Bank # 163): 4 µg/mL (≈ 6.83 µM)
MIC (Enterobacterales; Enterobacter cloacae, KUB No. 5761, AR Bank # 365): 16 µg/mL (≈ 27.3 µM)
MIC (Enterobacterales; Enterobacter cloacae, KUB No. 5762, AR Bank # 366): 4 µg/mL (≈ 6.83 µM)
MIC (Enterobacterales; Enterobacter cloacae, KUB No. 5763, AR Bank # 367): 1 µg/mL (≈ 1.71 µM)
MIC (Enterobacterales; Enterobacter cloacae, KUB No. 5778, AR Bank # 432): 2 µg/mL (≈ 3.42 µM)
MIC (Enterobacterales; Enterobacter cloaccae, KUB No. 5651, AR Bank # 154): 8 µg/mL (≈ 13.7 µM)
MIC (Enterobacterales; Enterobacter clooreae, KUB No. 5633, AR Bank # 136): 2 µg/mL (≈ 3.42 µM)
MIC (Enterobacterales; Escherichia coli, Escherichia coli KUB No. 5783, AR Bank #437): 2 µg/mL (≈ 3.42 µM)
MIC (Enterobacterales; Escherichia coli, Escherichia coli KUB No. 5794, AR Bank #450): 2 µg/mL (≈ 3.42 µM)
MIC (Enterobacterales; Escherichia coli, Escherichia coli KUB No. 5795, AR Bank #451): 8 µg/mL (≈ 13.7 µM)
MIC (Enterobacterales; Escherichia coli, Escherichia coli KUB No. 5796, AR Bank #452): 1 µg/mL (≈ 1.71 µM)
MIC (Enterobacterales; Escherichia coli, Escherichia coli KUB No. 5803, AR Bank #861): 1 µg/mL (≈ 1.71 µM)
MIC (Enterobacterales; Escherichia coli, KUB No. 5558, AR Bank # 61): 16 µg/mL (≈ 27.3 µM)
MIC (Enterobacterales; Escherichia coli, KUB No. 5564, AR Bank # 67): 2 µg/mL (≈ 3.42 µM)
MIC (Enterobacterales; Escherichia coli, KUB No. 5566, AR Bank # 69): 16 µg/mL (≈ 27.3 µM)
MIC (Enterobacterales; Escherichia coli, KUB No. 5574, AR Bank # 77): 1 µg/mL (≈ 1.71 µM)
MIC (Enterobacterales; Escherichia coli, KUB No. 5578, AR Bank # 81): 2 µg/mL (≈ 3.42 µM)
MIC (Enterobacterales; Escherichia coli, KUB No. 5581, AR Bank # 84): 0.5 µg/mL (≈ 0.854 µM)
MIC (Enterobacterales; Escherichia coli, KUB No. 5582, AR Bank # 85): 1 µg/mL (≈ 1.71 µM)
MIC (Enterobacterales; Escherichia coli, KUB No. 5583, AR Bank # 86): 1 µg/mL (≈ 1.71 µM)
MIC (Enterobacterales; Escherichia coli, KUB No. 5586, AR Bank # 89): 1 µg/mL (≈ 1.71 µM)
MIC (Enterobacterales; Escherichia coli, KUB No. 5601, AR Bank # 104): 1 µg/mL (≈ 1.71 µM)
MIC (Enterobacterales; Escherichia coli, KUB No. 5611, AR Bank # 114): 1 µg/mL (≈ 1.71 µM)
MIC (Enterobacterales; Escherichia coli, KUB No. 5615, AR Bank # 118): > 64 µg/mL
MIC (Enterobacterales; Escherichia coli, KUB No. 5616, AR Bank # 119): > 64 µg/mL
MIC (Enterobacterales; Escherichia coli, KUB No. 5625, AR Bank # 128): > 64 µg/mL
MIC (Enterobacterales; Escherichia coli, KUB No. 5634, AR Bank # 137): 16 µg/mL (≈ 27.3 µM)
MIC (Enterobacterales; Escherichia coli, KUB No. 5646, AR Bank # 149): 2 µg/mL (≈ 3.42 µM)
MIC (Enterobacterales; Escherichia coli, KUB No. 5647, AR Bank # 150): 0.5 µg/mL (≈ 0.854 µM)
MIC (Enterobacterales; Escherichia coli, KUB No. 5648, AR Bank # 151): 1 µg/mL (≈ 1.71 µM)
MIC (Enterobacterales; Escherichia coli, KUB No. 5659, AR Bank # 162): 1 µg/mL (≈ 1.71 µM)
MIC (Enterobacterales; Escherichia coli, KUB No. 5764, AR Bank # 368): 2 µg/mL (≈ 3.42 µM)
MIC (Enterobacterales; Escherichia coli, KUB No. 5765, AR Bank # 369): 2 µg/mL (≈ 3.42 µM)
